Experimental data: patent publication US7713994B2 (Wyeth LLC, priority 2005, dated 2010)

Columns and labels:
[1] = target: T1, cyclin D1/cdk 4 enzyme (Homo sapiens, UniProt P11802); test: CDK4 ELISA kinase assay (phospho-Rb ser 795 detection); type: biochemical; settings: In Vitro Enzyme Assays, 200 μM ATP, read-out: CDK4 IC50
T1 construct: made in house; host or cells: Sf9 insect cells, recombinant baculovirus
Outline: (§1)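 ELISA format: plate-bound GST-Rb, 200 μM ATP, Sf9 cyclin/CDK enzyme, 1 h at 30° C; then anti-pRb Ser795 primary overnight at 4° C, HRP secondary, TMB. IC50 after no-substrate background subtraction.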

[2] = target: T2, cyclin E/CDK2 enzyme (Homo sapiens, UniProt P24941); test: CDK2 ELISA kinase assay (phospho-Rb ser 795 detection); type: biochemical; settings: In Vitro Enzyme Assays, read-out: CDK2 IC50
T2 construct: made in house; host or cells: Sf9 insect cells, recombinant baculovirus
Outline: as §1

[3] = target: T3, cyclin B/CDK1 enzyme (Homo sapiens, UniProt P06493); test: CDK1 ELISA kinase assay (phospho-Rb ser 795 detection); type: biochemical; settings: In Vitro Enzyme Assays, read-out: CDK1 IC50
T3 construct: purchased New England BioLabs; host or cells: Sf9 insect cells, recombinant baculovirus
T3 sequence (P06493 whole entry): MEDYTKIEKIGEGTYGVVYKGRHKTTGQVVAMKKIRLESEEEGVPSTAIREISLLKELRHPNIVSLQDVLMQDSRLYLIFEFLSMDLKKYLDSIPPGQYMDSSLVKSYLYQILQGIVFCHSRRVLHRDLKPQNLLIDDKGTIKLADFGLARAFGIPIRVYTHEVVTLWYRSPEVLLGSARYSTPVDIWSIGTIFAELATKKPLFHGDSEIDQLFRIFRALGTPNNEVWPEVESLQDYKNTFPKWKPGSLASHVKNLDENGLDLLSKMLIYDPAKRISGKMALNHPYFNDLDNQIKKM
T3 sequence (P14635 whole entry partner): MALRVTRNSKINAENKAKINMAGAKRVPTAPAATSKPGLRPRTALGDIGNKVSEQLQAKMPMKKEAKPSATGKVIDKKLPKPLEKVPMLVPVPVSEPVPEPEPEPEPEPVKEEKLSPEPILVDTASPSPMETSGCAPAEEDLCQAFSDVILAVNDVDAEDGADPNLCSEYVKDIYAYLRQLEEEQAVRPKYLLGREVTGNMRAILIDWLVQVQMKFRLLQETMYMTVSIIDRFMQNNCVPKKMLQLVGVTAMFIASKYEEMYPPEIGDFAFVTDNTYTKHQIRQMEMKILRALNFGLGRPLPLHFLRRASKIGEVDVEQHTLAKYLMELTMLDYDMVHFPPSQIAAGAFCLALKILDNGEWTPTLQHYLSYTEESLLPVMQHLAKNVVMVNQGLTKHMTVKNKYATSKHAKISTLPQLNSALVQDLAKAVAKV
Outline: as §1

[4] = tested on: BT474; test: Cytotoxicity assay (SRB), BT474; type: cell-based; settings: Homo sapiens, BT-474, 144 h, BT474 cells, SRB, 6 days; read-out: In Vitro Cellular Activity IC50 BT474
Outline: (§2)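 Seeding: BT474 12000, HCT-116 4000, LoVo 6000, MCF-7 6000 cells/well; overnight attachment, 37 °C, 7% CO2. Drug exposure 3 d (BT474 6 d), RPMI 1640 + 5% FBS. Readout: TCA fix, 0.4% SRB, Tris solubilisation, A540.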

[5] = tested on: HCT-116; test: Cytotoxicity assay (SRB), HCT-116; type: cell-based; settings: Homo sapiens, HCT-116, 72 h, HCT116 cells, SRB, three days; read-out: In Vitro Cellular Activity IC50 HCT116
Outline: as §2

[6] = tested on: LoVo; test: Cytotoxicity assay (SRB), LoVo; type: cell-based; settings: Homo sapiens, LoVo, 72 h, LoVo cells, SRB, three days; read-out: In Vitro Cellular Activity IC50 LOVO
Outline: as §2

[7] = tested on: MCF-7; test: Cytotoxicity assay (SRB), MCF-7; type: cell-based; settings: Homo sapiens, MCF7, 72 h, MCF-7 cells, SRB, three days; read-out: In Vitro Cellular Activity IC50 MCF-7
Outline: as §2

[8] = tested on: SK-UT-1B; test: In Vitro Cellular Activity (Table III), SK-UT-1B; type: cell-based; settings: Homo sapiens, Skut1B; SK-UT-1B cells
[9] = target: T4, IGF1-receptor kinase (Homo sapiens, UniProt P08069); test: IGF1-R kinase assay (96-well FRET Lance); type: biochemical; settings: for IC50: 100 micromolar ATP, read-out: Igfr ic50; for inhibition at 10 µM: 10 uM compound, read-out: Igfr % Inhibition at 10 uM
T4 construct: Purified GST-IGFR; purified Bis-IGFR and Tris-IGFR; fused on or other part: GST with a thrombin cleavage site, removed in the Bis-IGFR and Tris-IGFR forms
T4 sequence (P08069 999-1274 limits assumed): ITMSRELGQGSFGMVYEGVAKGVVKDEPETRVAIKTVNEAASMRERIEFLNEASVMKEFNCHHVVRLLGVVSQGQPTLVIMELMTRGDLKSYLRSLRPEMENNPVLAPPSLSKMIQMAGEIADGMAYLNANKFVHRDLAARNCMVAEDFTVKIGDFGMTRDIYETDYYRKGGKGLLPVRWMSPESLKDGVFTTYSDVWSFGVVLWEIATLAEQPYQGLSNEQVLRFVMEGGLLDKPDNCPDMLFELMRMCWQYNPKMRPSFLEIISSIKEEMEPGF
Text: • TITLE: 96-well assay for inhibitors of IGF1-receptor kinase activity • SHORT TITLE: IGF1-R kinase assay • PURPOSE: Identify inhibitors of IGF-1 receptor kinase activity • MATERIALS AND METHODS: Overview: This is a 96-well FRET (Lance) tyrosine kinase assay. • Materials: • Purified GST-IGFR; purified Bis-IGFR and Tris-IGFR; expressed in ExpresSF insect cells. Bis and Tris IGFR are made by phosphorylating the IGFR in the presence of ATP and Mg2+, followed by thrombin cleavage to remove the GST-thrombin cleavage site, and purification by HPLC. The Bis and tris IGFR are phosphorylated on two (bis) or all three tyrosines (tris) in the activation loop. • Biotinylated peptide with a sequence corresponding to the sequence surrounding the autophosphorylation sites in IGF1-R Biotin-NH2-[…]-OH (Anaspec) • Europium-conjugated phosphotyrosine antibody (PT66) (Perkin-Elmer). • Surelight APC (Perkin-elmer) • Plates: 96-well Assay plates (polypropylene plates, natural color) • 96-well-Lance plates (Microfluor 2 black plates; Cat # 7205; Thermolabsystems. • ATP: (Amersham Pharmacia Cat # 27-2056-01), 100 mM stock. • IGFR Lance Protocol (96-well format) • Procedure: • Reagents: • Kinase Buffer (10×): • 0.5 M Hepes, pH 7.5 rt • 0.1 M MgCl2 • Quench Buffer (to be added straight, 1:1, to r×n mix): • 50 mM Hepes, pH 7.5 rt • 50 mM EDTA • Lance Detection Buffer: • 20 mM Tris-HCl, pH 7.5 rt • 0.15 M NaCl-150 • 150 ug/ml BSA (Sigma Cat# A-7284) • Eu-labeled phosphotyrosine antibody PT66 (Perkin-Elmer): 1:4000 dilution of 200 μg/ml stock • Streptavidin-APC (Perkin Elmer): 1/250 (4 microgram/ml final) • ATP (Amersham Pharmacia cat #27-2056-01) 100 mM stock: Dilute to 1 mM (10×) in water. […] Transfer 12.5[…] of the kinase reaction to the antibody detection plate. Allow antibody to react for 1 h at rt in the dark. Then read in Victor with an excitation filter of 340 nm and an emission filter of 665 nm. • Compound additions: • When Example compounds are tested, they are added from a 10% DMSO/50 mM Hepes (pH 7.5) 10× stock. 5 microliters of compound in this buffer are added to the enzyme-peptide-buffer mix. After 10′ incubation at room temperature, ATP is added to start the reaction. A no ATP background control is included in the assay. • […] OF RESULTS: Data are analyzed as follows: % Inhibition={[Sample cpm−Bkg cpm]/[No cmpd cpm−Bkg cpm]}×100%. The biological activity of representative Examples of the invention is reported in Table VII as: 0.2 µM≦x≦10 µM or % inhibition@10 µM.

T1 sequence (P11802 whole entry, species assumed): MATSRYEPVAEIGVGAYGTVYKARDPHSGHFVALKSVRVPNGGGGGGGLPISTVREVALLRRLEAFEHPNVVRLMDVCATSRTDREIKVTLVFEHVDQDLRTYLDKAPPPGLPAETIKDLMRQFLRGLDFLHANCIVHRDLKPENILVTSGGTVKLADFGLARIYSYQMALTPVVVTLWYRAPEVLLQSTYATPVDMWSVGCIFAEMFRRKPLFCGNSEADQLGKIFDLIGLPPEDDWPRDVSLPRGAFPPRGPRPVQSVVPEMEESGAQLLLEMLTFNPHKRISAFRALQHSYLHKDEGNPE
T1 sequence (P24385 whole entry partner, species assumed): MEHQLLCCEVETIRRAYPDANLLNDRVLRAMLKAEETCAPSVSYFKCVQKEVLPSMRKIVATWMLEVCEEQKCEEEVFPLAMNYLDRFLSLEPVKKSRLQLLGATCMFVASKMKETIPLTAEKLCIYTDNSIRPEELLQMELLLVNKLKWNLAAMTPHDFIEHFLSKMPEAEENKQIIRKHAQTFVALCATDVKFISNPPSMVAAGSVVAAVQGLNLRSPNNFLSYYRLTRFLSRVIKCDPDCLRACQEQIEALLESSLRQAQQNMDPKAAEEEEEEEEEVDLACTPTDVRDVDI

| IC50 [1] [µM] | IC50 [2] [µM] | IC50 [3] [µM] | melting point | IC50 [8] [µM] | IC50 [9] [µM] | inhibition at 10 µM [9] [%] | SMILES | IC50 [4] [µM] | IC50 [5] [µM] | IC50 [6] [µM] | IC50 [7] [µM] |
| --- | --- | --- | --- | --- | --- | --- | --- | --- | --- | --- | --- |
| 1.1 | > 50 | > 50 | 129 to 130 °C | 10 |  |  | COCC1CCCN1Cc1ccc(N/C=C2\C(=O)NC(=O)c3ccc(Br)cc32)cc1 (stereo in doubt) [Example 39] | 7.9 | 7.5 | 9.4 | 6.3 |
| 38 | 18.9 | > 36 | 150 to 151 °C | > 36 |  |  | COc1ccc(N/C=C2\C(=O)NC(=O)c3ccccc32)cc1 [Example 1, (4Z)-4-{[(4-Methoxyphenyl)amino]methylene}isoquinoline-1,3(2H,4H)-dione] | 43 | 29 | 30 | 19 |
| 12.1 | > 29 | > 29 | 186 to 187 °C (dec.) | 4.3 |  |  | CN1CCN(c2ccc(N/C=C3\C(=O)NCc4ccccc43)cc2)CC1 [Example 2, (4Z)-4-({[4-(4-Methyl-1-piperazinyl)phenyl]amino}methylene)-1,4-dihydro-3(2H)-isoquinolinone] | 21.5 | 7.4 | 7.8 | 6.7 |
| 10.2 | > 28 | > 28 | 224 to 225 °C | 10.2 |  |  | O=C1NC(=O)c2ccccc2/C1=C/Nc1ccc(CCN2CCCC2)cc1 [Example 5, (4Z)-4-({[4-(2-Pyrrolidin-1-ylethyl)phenyl]amino}methylene)isoquinoline-1,3(2H,4H)-dione] |  | 10.8 |  | 8 |
| > 50 | > 32 | > 32 | 277 to 278 °C | 8.9 |  |  | O=C1NC(=O)c2ccccc2/C1=C/Nc1ccc2ncccc2c1 [Example 8, (4Z)-4-[(Quinolin-6-ylamino)methylene]isoquinoline-1,3(2H,4H)-dione] | > 50 | > 50 | > 50 | > 50 |
| > 50 | > 37 | > 37 | 242 to 243 °C | > 36 |  |  | O=C1NC(=O)c2ccccc2/C1=C\c1ccc(O)cc1 [Example 11, (4E)-4-(4-hydroxybenzylidene)isoquinoline-1,3(2H,4H)-dione] | > 50 | 2.3 | 6.8 | 18 |
| 5.15 | 26 | > 26 | 224 to 225 °C | 16.3 |  |  | O=C1NC(=O)c2ccccc2/C1=C/Nc1ccc(CN2CCC(O)CC2)cc1 [Example 23, (4Z)-4-[({4-[(4-Hydroxypiperidin-1-yl)methyl]phenyl}amino)methylene]isoquinolin-1,3(2H,4H)-dione] |  | 10.5 |  | 8.7 |
| 4.3 | > 27 | > 27 | 198 to 200 °C | 6.1 |  |  | O=C1NC(=O)c2ccccc2/C1=C/Nc1ccc(CN2CCCCCC2)cc1 [Example 26, (4Z)-4-({[4-(Azepan-1-ylmethyl)phenyl]amino}methylene)isoquinoline-1,3(2H,4H)-dione] |  | 7.3 |  | 8 |
| 15 | > 23 | > 23 | 223 to 224 °C | 17 |  |  | CN(C(=O)CN1CCCCC1)c1ccc(N/C=C2\C(=O)NC(=O)c3ccccc32)cc1 [Example 29, N-(4-{[(Z)-(1,3-Dioxo-2,3-dihydroisoquinolin-4(1H)-ylidene)methyl]amino}phenyl)-1,3(2H,4H)-dione N-Methyl-2-piperidin-1-ylacetamide] | 21 | 21 | 19 | 12 |
| > 50 | 2.4 | > 50 | 258 to 259 °C | > 50 |  |  | O=C1NC(=O)c2ccc(Br)cc2/C1=C/NCc1ccncc1 [Example 31, (4Z)-6-Bromo-4-{[(pyridin-4-ylmethyl)amino]methylene}isoquinoline-1,3(2H,4H)-dione] | 41 | 31 | > 50 | > 50 |
| 1.1 | > 50 | > 50 | 129 to 130 °C | 11 |  |  | COC[C@H]1CCCN1Cc1ccc(N/C=C2\C(=O)NC(=O)c3ccc(Br)cc32)cc1 [Example 38] | 2.8 | 7.3 | 7.9 | 3.7 |
|  |  |  |  |  | 0.361 |  | CC(=O)c1cccc(Nc2ccc3c(c2)/C(=C/Nc2ccc(N4CCN(C)CC4)cc2)C(=O)NC3=O)c1 [Example 881] |  |  |  |  |
|  |  |  |  |  | 4.47 |  | Cc1ccccc1Nc1ccc2c(c1)/C(=C/Nc1ccc(CN3CCCCC3)cc1)C(=O)NC2=O [Example 882, 4-[(4-piperidin-1-ylmethyl-phenylamino)-methylene]-6-o-tolylamino-4H-isoquinoline-1,3-dione] |  |  |  |  |
|  |  |  |  |  |  | 33 | Nc1cccc(Nc2ccc3c(c2)/C(=C/Nc2ccc(CN4CCCCC4)cc2)C(=O)NC3=O)c1 [Example 883, (4Z)-6-[(3-aminophenyl)amino]-4-({[4-(piperidin-1-ylmethyl)phenyl]amino}methylene)isoquinoline-1,3(2H,4H)-dione] |  |  |  |  |
|  |  |  |  |  |  | 20 | Cc1cccc(Nc2ccc3c(c2)/C(=C/Nc2ccc(CN4CCCCC4)cc2)C(=O)NC3=O)c1 [Example 884, (4Z)-6-[(3-methylphenyl)amino]-4-({[4-(piperidin-1-ylmethyl)phenyl]amino}methylene)isoquinoline-1,3(2H,4H)-dione] |  |  |  |  |
|  |  |  |  |  | 0.36 |  | CC(=O)c1cccc(Nc2ccc3c(c2)/C(=C/Nc2ccc(CN4CCCCC4)cc2)C(=O)NC3=O)c1 [Example 885, (4Z)-6-[(3-acetylphenyl)amino]-4-({[4-(piperidin-1-ylmethyl)phenyl]amino}methylene)isoquinoline-1,3(2H,4H)-dione] |  |  |  |  |
